Laboratory results published in the Kinase Knowledgebase extract (Sharma et al. 2016).

What follows are compounds tested against EGFR (human) (UniProt P00533). Details: A431.
Chain of EGFR (human) (P00533 whole entry, looked up): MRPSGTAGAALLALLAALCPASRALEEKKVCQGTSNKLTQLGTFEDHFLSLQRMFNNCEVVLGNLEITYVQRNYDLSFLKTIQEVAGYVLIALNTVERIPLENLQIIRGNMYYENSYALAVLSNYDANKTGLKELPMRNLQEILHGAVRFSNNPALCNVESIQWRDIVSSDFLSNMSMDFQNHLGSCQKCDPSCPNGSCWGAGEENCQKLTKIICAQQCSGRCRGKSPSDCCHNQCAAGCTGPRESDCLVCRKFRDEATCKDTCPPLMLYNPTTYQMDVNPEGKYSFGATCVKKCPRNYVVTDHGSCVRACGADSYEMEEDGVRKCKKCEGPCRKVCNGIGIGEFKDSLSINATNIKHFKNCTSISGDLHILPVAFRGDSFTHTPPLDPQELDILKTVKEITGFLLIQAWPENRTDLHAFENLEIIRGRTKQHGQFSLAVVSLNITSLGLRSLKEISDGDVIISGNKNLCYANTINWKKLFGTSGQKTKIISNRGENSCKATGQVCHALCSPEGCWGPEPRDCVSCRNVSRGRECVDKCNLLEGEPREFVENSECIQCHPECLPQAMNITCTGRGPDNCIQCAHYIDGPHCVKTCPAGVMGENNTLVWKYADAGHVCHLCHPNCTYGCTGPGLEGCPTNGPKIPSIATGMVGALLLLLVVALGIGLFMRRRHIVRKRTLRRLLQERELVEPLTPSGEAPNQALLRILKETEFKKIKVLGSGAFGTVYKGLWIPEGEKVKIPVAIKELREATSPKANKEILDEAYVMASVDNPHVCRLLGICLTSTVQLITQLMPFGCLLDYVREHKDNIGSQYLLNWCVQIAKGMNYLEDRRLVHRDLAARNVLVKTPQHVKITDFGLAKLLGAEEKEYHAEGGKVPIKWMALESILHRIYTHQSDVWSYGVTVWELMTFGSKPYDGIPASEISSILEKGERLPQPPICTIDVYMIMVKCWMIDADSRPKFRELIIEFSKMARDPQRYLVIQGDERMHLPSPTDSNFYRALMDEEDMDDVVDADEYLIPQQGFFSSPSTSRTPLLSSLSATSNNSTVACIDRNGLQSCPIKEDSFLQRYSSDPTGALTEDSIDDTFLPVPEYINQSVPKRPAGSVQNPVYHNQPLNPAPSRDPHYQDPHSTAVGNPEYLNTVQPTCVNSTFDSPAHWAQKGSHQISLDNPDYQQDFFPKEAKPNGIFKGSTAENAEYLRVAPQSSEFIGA

SMILES | IC50
Oc1ccc(NCc2cccc(O)c2)cc1 | > 140 µM
Oc1ccc(CNc2ccccc2O)cc1 | > 140 µM
Oc1cccc(C=Nc2cccc(O)c2)c1 | > 140 µM
Oc1ccc(C=Nc2ccccc2O)cc1 | > 140 µM
Oc1cccc(N=Cc2ccccc2O)c1 | > 140 µM
Oc1ccc(NCc2ccccc2O)cc1 | > 140 µM
Oc1cccc(NCc2ccccc2O)c1 | > 140 µM
Oc1cccc(C=Nc2ccccc2O)c1 | 108 µM
Oc1ccc(C=Nc2ccc(O)cc2)cc1 | > 140 µM
Oc1ccc(N=Cc2cccc(O)c2)cc1 | 33 µM
O=C(O)c1cc(N(Cc2ccccc2O)Cc2cc(O)ccc2O)ccc1O | 0.4 µM
Oc1ccccc1C=Nc1ccccc1O | > 140 µM
Oc1ccc(CNc2ccc(O)cc2)cc1 | 33 µM
Oc1cccc(CNc2cccc(O)c2)c1 | > 140 µM
Oc1ccc(N=Cc2ccccc2O)cc1 | 92 µM
Oc1ccc(CNc2cccc(O)c2)cc1 | > 140 µM
Oc1cccc(CNc2ccccc2O)c1 | > 140 µM
Oc1ccccc1CNc1ccccc1O | > 140 µM
Oc1ccc(C=Nc2cccc(O)c2)cc1 | > 140 µM
